Source: the NIST ThermoML archive (doi:10.1021/acs.jced.8b01204)

Assay: xn = mol fraction of the nth substance listed
Conditions: 101 kPa, Liquid; for speed of sound: Single path-length method; for mass density: Vibrating tube method

C[N+]1(CC2CO2)CCCC1=O.O=C([O-])c1ccccc1O (stereo not given) [1-methyl-1-(oxiran-2-ylmethyl)-2-oxopyrrolidinium salicylate] + CC(=O)O
Conditions | mass density, 293.15 K [kg/m3] | mass density, 298.15 K [kg/m3] | mass density, 303.15 K [kg/m3] | mass density, 308.15 K [kg/m3] | mass density, 313.15 K [kg/m3] | speed of sound, 293.15 K [m/s] | speed of sound, 298.15 K [m/s] | speed of sound, 303.15 K [m/s] | speed of sound, 308.15 K [m/s] | speed of sound, 313.15 K [m/s]
x1 = 0.0301 | 1080.9 | 1075.6 | 1070.3 | 1065 | 1059.7 | 1250 | 1232.7 | 1215.5 | 1198.6 | 1181.8
x1 = 0.0701 | 1103.7 | 1098.6 | 1093.5 | 1088.4 | 1083.3 | 1310.7 | 1294 | 1277.3 | 1260.7 | 1244.4
x1 = 0.1001 | 1117.2 | 1112.3 | 1107.3 | 1102.4 | 1097.4 | 1349.7 | 1333.2 | 1316.5 | 1300.1 | 1283.9
x1 = 0.2001 | 1147.6 | 1143 | 1138.3 | 1133.6 | 1128.8 | 1441 | 1424.6 | 1408.1 | 1391.8 | 1375.7
x1 = 0.3003 | 1166.3 | 1161.7 | 1157.2 | 1152.7 | 1148.9 | 1496.7 | 1480.2 | 1463.7 | 1447.5 | 1431
x1 = 0.4013 | 1178.7 | 1174.2 | 1169.7 | 1165.5 | 1161 | 1535 | 1515.8 | 1497.4 | 1480.2 | 1463.1
x1 = 0.5017 | 1187.3 | 1183 | 1178.7 | 1174.5 | 1170.1 | 1561.4 | 1541.8 | 1523.2 | 1504.9 | 1488.8
x1 = 0.6002 | 1193.9 | 1189.6 | 1185.4 | 1181.3 | 1177 | 1582.2 | 1562.5 | 1542.9 | 1528.5 | 1515.4
x1 = 0.7019 | 1199.1 | 1194.9 | 1190.7 | 1186.7 | 1182.5 | 1600 | 1582 | 1565.2 | 1548.8 | 1532.6
x1 = 0.8024 | 1203.6 | 1199.3 | 1195.1 | 1191 | 1186.7 | 1617.3 | 1600 | 1583 | 1566.5 | 1550.4
x1 = 0.901 | 1207 | 1202.7 | 1198.6 | 1194.5 | 1190.2 | 1626.8 | 1609.2 | 1592.2 | 1575.7 | 1559.5
x1 = 1 | 1209.8 | 1205.5 | 1201.3 | 1197.2 | 1193 | 1634.2 | 1614.5 | 1595.7 | 1577.6 | 1559.5

C[N+]1(CC2CO2)CCCC1=O.O=C([O-])c1ccccc1O (stereo not given) [1-methyl-1-(oxiran-2-ylmethyl)-2-oxopyrrolidinium salicylate] + CCC(=O)O
Conditions | mass density, 293.15 K [kg/m3] | mass density, 298.15 K [kg/m3] | mass density, 303.15 K [kg/m3] | mass density, 308.15 K [kg/m3] | mass density, 313.15 K [kg/m3] | speed of sound, 293.15 K [m/s] | speed of sound, 298.15 K [m/s] | speed of sound, 303.15 K [m/s] | speed of sound, 308.15 K [m/s] | speed of sound, 313.15 K [m/s]
x1 = 0.0303 | 1018.7 | 1013.6 | 1008.2 | 1003.2 | 998 | 1211.9 | 1193.4 | 1175 | 1156.8 | 1138.9
x1 = 0.0701 | 1046.2 | 1041.2 | 1036.2 | 1031.3 | 1026.3 | 1266.7 | 1248.7 | 1230.8 | 1213.2 | 1195.8
x1 = 0.1006 | 1063.4 | 1058.6 | 1053.7 | 1048.9 | 1044 | 1303.5 | 1286 | 1268.5 | 1251.1 | 1233.7
x1 = 0.2 | 1105.7 | 1101.9 | 1096.5 | 1091.8 | 1087.2 | 1400.3 | 1383.3 | 1366.1 | 1349.2 | 1332.5
x1 = 0.3007 | 1133.9 | 1129.4 | 1124.9 | 1120.4 | 1115.9 | 1465.8 | 1449 | 1432 | 1415.3 | 1398.7
x1 = 0.4009 | 1153.6 | 1149.2 | 1144.8 | 1140.3 | 1135.9 | 1505.7 | 1488.9 | 1472 | 1455.4 | 1439
x1 = 0.501 | 1168.6 | 1164.2 | 1159.8 | 1155.4 | 1151 | 1538.8 | 1521.9 | 1505 | 1488.4 | 1472
x1 = 0.6002 | 1180.6 | 1176.3 | 1172 | 1167.6 | 1163.3 | 1565.4 | 1547.8 | 1530.9 | 1514.3 | 1497.9
x1 = 0.7002 | 1190.5 | 1186.2 | 1181.9 | 1177.6 | 1173.3 | 1584.5 | 1566.8 | 1549.5 | 1532.7 | 1516.3
x1 = 0.8005 | 1198.3 | 1194.1 | 1189.8 | 1185.5 | 1181.2 | 1599.7 | 1581.7 | 1564.2 | 1547.3 | 1530.8
x1 = 0.901 | 1204.6 | 1200.4 | 1196.1 | 1191.8 | 1187.5 | 1615.4 | 1596.4 | 1578.6 | 1561.5 | 1544.9
x1 = 1 | 1209.8 | 1205.5 | 1201.3 | 1197.2 | 1193 | 1634.2 | 1614.5 | 1595.7 | 1577.6 | 1559.5
